The experiment is described as follows: Inhibition of HIV1 gp41-induced cell-cell fusion between viral protein expressing human HL2/3 cells and TZM-bl target cells preincubated overnight with TZM-bl cells followed by co-incubation with HL2/3 cells for 6 hrs by luciferase reporter gene assay. For orientation: Reporter assays use an easily measured gene product as a stand-in for the process of interest.

Each structure is given as a SMILES string.

Broadly, the IC50 is the concentration that inhibits the measured activity by half. Regarding `Cn1ccc2cc(F)c(-c3ccc4ccn(Cc5cc(F)cc(C(=O)O)c5)c4c3)cc21`, the IC50 amounted to 2000 nM.

In the case of `COc1cccc(Cn2ccc3cc(F)c(-c4ccc5ccn(Cc6cccc(C(=O)O)c6)c5c4)cc32)c1`, the IC50 was determined as 3500 nM.

With `Nc1ccc(Cn2ccc3ccc(-c4ccc5ccn(Cc6cccc(C(=O)O)c6)c5c4)cc32)cc1`, the IC50 was found to be 3000 nM.

In the case of `O=C(O)c1cccc(Cn2ccc3ccc(-c4ccc5ccn(Cc6cccc([N+](=O)[O-])c6)c5c4)cc32)c1`, the 50% inhibitory concentration (IC50) is 2000 nM.

For `COC(=O)c1cc(Cn2ccc3ccc(-c4ccc5ccn(Cc6cccc(C(=O)O)c6)c5c4)cc32)cc(C(=O)OC)c1`, the half-maximal inhibitory concentration (IC50) was determined as 200 nM.

In the case of `Cc1ccc(S(=O)(=O)n2ccc3ccc(-c4ccc5ccn(Cc6cccc(C(=O)O)c6)c5c4)cc32)cc1`, the 50% inhibitory concentration (IC50) turned out to be 1300 nM.

Regarding `CC(C)(C)OC(=O)Nc1cccc(Cn2ccc3ccc(-c4ccc5ccn(Cc6cccc(C(=O)O)c6)c5c4)cc32)c1`, the IC50 came to 2000 nM.

For `Cn1ncc2ccc(-c3ccc4ccn(Cc5cc(F)cc(C(=O)O)c5)c4c3)cc21`, the IC50 stood at 7000 nM.

Regarding `COC(=O)c1ccc(Cn2ccc3ccc(-c4ccc5ccn(Cc6cccc(C(=O)O)c6)c5c4)cc32)c(OC)c1`, the IC50 was 2000 nM.

Turning to `Cn1ccc2ccc(-c3ccc4ccn(Cc5cc(F)cc(C(=O)O)c5)c4c3)cc21`, the IC50 turned out to be 3600 nM.

Consider `Cc1cn(C(=O)OC(C)(C)C)c2cc(-c3ccc4ccn(Cc5cccc(C(=O)O)c5)c4c3)ccc12`, for which the IC50 was found to be 2600 nM.

Consider `Cn1ccc2ccc(-c3ccc4c(c3)N(Cc3cccc(C(=O)O)c3)CC4)cc21`, for which the IC50 was above 10000 nM.

For `CC(=O)Nc1cccc(Cn2ccc3ccc(-c4ccc5ccn(Cc6cccc(C(=O)O)c6)c5c4)cc32)c1`, the IC50 worked out at 1000 nM.

For the compound `Cn1ccc2ccc(-c3ccc4cnn(Cc5cc(F)cc(C(=O)O)c5)c4c3)cc21`, the concentration for half-maximal inhibition (IC50) stood at 4600 nM.

Consider `CC(C)(C)OC(=O)N1CCC(Cn2ccc3ccc(-c4ccc5ccn(Cc6cccc(C(=O)O)c6)c5c4)cc32)CC1`, for which the IC50 is 1200 nM.

As to `CC(C)(C)OC(=O)n1ccc2ccc(-c3ccc4ccn(Cc5cccc(C(=O)O)c5)c4c3)cc21`, the IC50 came out at 800 nM.

As to `Cn1cc2ccc(-c3ccc4ccn(Cc5cc(F)cc(C(=O)O)c5)c4c3)cc2n1`, the IC50 stood at 28000 nM.

With `CN(C(=O)OC(C)(C)C)c1cccc(-c2ccc3ccn(Cc4cccc(C(=O)O)c4)c3c2)c1`, the IC50 is 5900 nM.

As for `COC(=O)c1cc(F)cc(Cn2ccc3ccc(-c4ccc5ccn(Cc6cccc(C(=O)O)c6)c5c4)cc32)c1`, the IC50 turned out to be 800 nM.

Turning to `COC(=O)c1cccc(Cn2ccc3ccc(-c4ccc5cnn(Cc6cccc(C(=O)O)c6)c5c4)cc32)c1`, the IC50 was determined as 2800 nM.

Consider `COc1cc(Cn2ccc3ccc(-c4ccc5ccn(Cc6cccc(C(=O)O)c6)c5c4)cc32)cc(C(=O)O)c1`, for which the IC50 was found to be 8000 nM.

As for `COc1cccc(CNc2cccc(-c3ccc4ccn(Cc5cccc(C(=O)O)c5)c4c3)c2)c1`, the concentration for half-maximal inhibition (IC50) was above 10000 nM.

As to `COc1cccc(Cn2ccc3ccc(-c4ccc5c(C)cn(Cc6cccc(C(=O)O)c6)c5c4)cc32)c1`, the IC50 came to 4000 nM.

Take `COc1cccc(CN2CCc3ccc(-c4ccc5ccn(Cc6cccc(C(=O)O)c6)c5c4)cc32)c1`: the IC50 worked out at 1000 nM.

In the case of `Cn1ncc2ccc(-c3ccc4cnn(Cc5ccc(F)c(C(=O)O)c5)c4c3)cc21`, the 50% inhibitory concentration (IC50) was above 25000 nM.

With `COC(=O)c1cccc(Cn2ncc3ccc(-c4ccc5ccn(Cc6cccc(C(=O)O)c6)c5c4)cc32)c1`, the IC50 is 300 nM.
